Measurements as given in patent US20200131669A1, “CYCLIC PEPTIDE COMPOUND HAVING HIGH MEMBRANE PERMEABILITY, AND LIBRARY CONTAINING SAME” (Chugai Seiyaku Kabushiki Kaisha, priority 2017, published 2020).
Starred links: 1 amine or outer side, 2 acyl side, 3 side chain; linkers in the order of their positions; H or OH if unused. Positions of bridges follow the written chain, without caps; N, C: chain ends. Non-standard residues stand in square brackets, D forms with d. Residues, ends and D or L forms follow the SMILES beside them. *: point of attachment. X4 = O=C([C@@H]1C[C@@H](N2CCC(F)(F)CC2)CN1[*:1])[*:2]; Phe(4-CF3) = N[C@@H](Cc1ccc(C(F)(F)F)cc1)C(=O)O; NMePhe(3-Cl) = CN[C@@H](Cc1cccc(Cl)c1)C(=O)O; X14 = O=C([C@H](CCc1ccccc1Cl)N[*:1])[*:2]; NMehPhe = CN[C@@H](CCc1ccccc1)C(=O)O; Gly(NCH2CH2Ph) = O=C(O)CNCCc1ccccc1; hhPhe = N[C@@H](CCCc1ccccc1)C(=O)O; X3 = O=C([C@H](CCCCO)N[*:1])[*:2]; Hyp = O=C(O)[C@@H]1C[C@@H](O)CN1; NMeF = CN[C@@H](Cc1ccccc1)C(=O)O; NMeGABA = CN(CCCC(=O)[*:2])[*:1]; NMeI = CC[C@H](C)[C@H](NC)C(=O)O; Butyl(3-Me,3-OH) = CC(C)(O)CC*; NMeD = CN[C@@H](CC(=O)O)C(=O)O; NMeL = CN[C@@H](CC(C)C)C(=O)O; dNMeL = CN[C@H](CC(C)C)C(=O)O; NMeAbu = CC[C@H](NC)C(=O)O; NMeA = CN[C@@H](C)C(=O)O; Piperidide = C1CCN(*)CC1; CH2CMe2OH = CC(C)(O)C*; Isopentyl = CC(C)CC*; Ethyl(2-OH) = OCC*; Sar = CNCC(=O)O; tBu = CC(C)(C)*

assay: Caco-2 membrane permeability, improved method as used in the following Examples (96-well, 20 to 24 h preincubation); assay type: in vitro ADME; conditions: Caco-2, Caco-2
Protocol: In the following Examples, membrane permeability was measured in accordance with the improved method established as described above. Specifically, Caco-2 cells were cultured on a 96-well Transwell for three weeks, after which DMEM+FaSSIF (1% DMSO)+compound were added to the apical side and DMEM was added to the basal side, and the cells were preincubated at 5% CO2, 37° C., and 80 rpm for 20 to 24 hours. Following the preincubation, measurement of membrane permeability was initiated by removing the preincubation solution on the apical and basal sides by suction, washing the membrane, and adding FaSSIF/HBSS buffer (1% DMSO) (pH 6.0) containing the compound to the apical side and HBSS buffer (4% BSA) (pH 7.4) to the basal side. Each well was shaken at 5% CO2, 37° C., and 80 rpm, and 180 minutes after the initiation, the sample on the basal side was collected and the permeation amount was measured by LC/MS. The membrane permeability coefficient (Papp) was calculated from the permeation amount. Herein, the terms “Caco-2 (cm/sec)” in the columns in the tables and “Papp (cm/sec)” are used in the same meaning.

Compound | Papp A→B
CC(C)C[C@@H]1NC(=O)[C@H](CCc2ccccc2)N(C)C(=O)[C@@H](C(C)C)NC(=O)C[C@@H](C(=O)N2CCCCC2)NC(=O)[C@H](CC(C)C)N(C)C(=O)[C@H](Cc2ccccc2)N(C)C(=O)[C@H](COCCC(C)(C)O)NC(=O)[C@H](CC(C)C)N(C)C(=O)CN(C)C(=O)[C@H]([C@@H](C)O)NC(=O)[C@H](CC(C)C)N(C)C1=O [pd438] ([dV][NMehPhe]L[NMeL]T[Sar][NMeL]S(Butyl(3-Me,3-OH))[NMeF][NMeL]D-Piperidide; lactam N-11) | 1 ×10⁻⁶ cm/s

same assay, conditions: human, Caco-2, Caco-2

Compound | Papp A→B at 180 min
CC(C)C[C@@H]1NC(=O)[C@H](C)N(C)C(=O)C[C@@H](C(=O)N2CCCCC2)NC(=O)[C@H](CC(C)C)N(C)C(=O)CN(C)C(=O)[C@H]([C@@H](C)O)NC(=O)[C@H](CC(C)C)N(C)C(=O)[C@H](CCc2ccccc2)N(C)C(=O)[C@H](CC(C)C)NC(=O)[C@H](Cc2ccccc2)N(C)C(=O)[C@H](CC(C)C)N(C)C1=O [pd323] ([NMeA]L[NMeL][NMeF]L[NMehPhe][NMeL]T[Sar][NMeL]D-Piperidide; lactam N-11) | 2.3 ×10⁻⁶ cm/s
CC[C@H](C)[C@H]1C(=O)N[C@@H](C(C)C)C(=O)N(C)CC(=O)N(C)[C@@H](CC(C)C)C(=O)N[C@H](C(=O)N2CCCCC2)CC(=O)N(C)[C@@H](C)C(=O)N[C@@H](COCCO)C(=O)N(C)[C@H](CC(C)C)C(=O)N(C)[C@@H](Cc2ccccc2)C(=O)N[C@@H](CC(C)C)C(=O)N(C)[C@@H](Cc2ccccc2)C(=O)N1C [pd500] ([NMeA]S(Ethyl(2-OH))[dNMeL][NMeF]L[NMeF][NMeI]V[Sar][NMeL]D-Piperidide; lactam N-11) | 2.2 ×10⁻⁶ cm/s
CC(C)C[C@@H]1NC(=O)[C@H](Cc2ccccc2)N(C)C(=O)[C@@H](C(C)C)NC(=O)C[C@@H](C(=O)N2CCCCC2)NC(=O)[C@H](CC(C)C)N(C)C(=O)[C@H](Cc2cccc(Cl)c2)N(C)C(=O)[C@H](COCC(C)(C)O)NC(=O)[C@H](CC(C)C)N(C)C(=O)CN(C)C(=O)[C@H]([C@@H](C)O)NC(=O)[C@H](CC(C)C)N(C)C1=O [pd427] ([dV][NMeF]L[NMeL]T[Sar][NMeL]S(CH2CMe2OH)[NMePhe(3-Cl)][NMeL]D-Piperidide; lactam N-11) | 1.3 ×10⁻⁶ cm/s
CC(C)C[C@@H]1NC(=O)[C@H](C)N(C)C(=O)C[C@@H](C(=O)N2CCCCC2)NC(=O)[C@H](CC(C)C)N(C)C(=O)CN(C)C(=O)[C@H](CCCCO)NC(=O)[C@H](CC(C)C)N(C)C(=O)[C@H](Cc2ccccc2)N(C)C(=O)[C@H](CC(C)C)NC(=O)[C@H](Cc2ccccc2)N(C)C(=O)[C@H](CC(C)C)N(C)C1=O [pd451] ([NMeA]L[NMeL][NMeF]L[NMeF][NMeL][X3][Sar][NMeL]D-Piperidide; lactam N-11) | 4.1 ×10⁻⁶ cm/s
CC(C)CCOC[C@@H]1NC(=O)[C@H](Cc2ccccc2)N(C)C(=O)[C@@H](C)NC(=O)C[C@@H](C(=O)N2CCCCC2)NC(=O)[C@H](CC(C)C)N(C)C(=O)[C@H](Cc2ccccc2)N(C)C(=O)[C@H](COC(C)(C)C)NC(=O)[C@H](CC(C)C)N(C)C(=O)CN(C)C(=O)[C@H]([C@@H](C)O)NC(=O)[C@H](CC(C)C)N(C)C1=O [pd301] ([dA][NMeF]S(Isopentyl)[NMeL]T[Sar][NMeL]S(tBu)[NMeF][NMeL]D-Piperidide; lactam N-11) | 1.7 ×10⁻⁶ cm/s
CC(C)C[C@H]1C(=O)N(C)[C@@H](CC(C)C)C(=O)N(C)[C@@H](CC(C)C)C(=O)N(C)[C@@H](Cc2ccccc2)C(=O)N[C@@H]([C@@H](C)O)C(=O)N(C)[C@@H](Cc2ccccc2)C(=O)N(C)[C@@H](CC(C)C)C(=O)N2C[C@H](N3CCC(F)(F)CC3)C[C@H]2C(=O)N[C@H](C(=O)N2CCCCC2)CC(=O)N[C@@H](C(C)C)C(=O)NCC(=O)N1C [pd460] (VG[NMeL][NMeL][NMeL][NMeF]T[NMeF][NMeL][X4]D-Piperidide; lactam N-11) | 1.2 ×10⁻⁶ cm/s
CCO[C@@H]1C[C@H]2C(=O)N[C@@H](COC(C)(C)C)C(=O)N(C)[C@@H](CC(C)C)C(=O)N(C)[C@@H](CC(C)C)C(=O)N3CCC[C@H]3C(=O)N[C@@H]([C@@H](C)O)C(=O)N(C)[C@@H](Cc3ccccc3)C(=O)N[C@@H](Cc3ccccc3)C(=O)N(C)[C@@H](CC(C)C)C(=O)N[C@H](C(=O)N3CCCCC3)CC(=O)N[C@H](CC(C)C)C(=O)N2C1 [pd378] ([dL][Hyp](Et)S(tBu)[NMeL][NMeL]PT[NMeF]F[NMeL]D-Piperidide; lactam N-11) | 1.2 ×10⁻⁶ cm/s
CC[C@H](C)[C@H]1C(=O)N[C@@H]([C@@H](C)O)C(=O)N(C)CC(=O)N(C)[C@@H](CC(C)C)C(=O)N[C@H](C(=O)N2CCCCC2)CC(=O)N(C)[C@@H](C)C(=O)N[C@@H](CCc2ccccc2Cl)C(=O)N(C)[C@@H](CC(C)C)C(=O)N(C)[C@@H](CC(C)C)C(=O)N[C@@H](C)C(=O)N(C)[C@@H](Cc2ccccc2)C(=O)N1C [pd352] ([NMeA][X14][NMeL][NMeL]A[NMeF][NMeI]T[Sar][NMeL]D-Piperidide; lactam N-11) | 1.4 ×10⁻⁶ cm/s
CC[C@H](C)[C@@H]1NC(=O)[C@H](CC(C)C)N(C)C(=O)CCCN(C)C(=O)C[C@@H](C(=O)N2CCCCC2)NC(=O)[C@H](CC(C)C)N(C)C(=O)[C@H](C)N(C)C(=O)[C@H]([C@@H](C)O)NC(=O)[C@H](CC(C)C)N(C)C(=O)[C@H](COCCC(C)C)NC(=O)[C@H](Cc2ccccc2)N(C)C(=O)[C@H](Cc2ccccc2)N(C)C1=O [pd302] ([NMeGABA][NMeL]I[NMeF][NMeF]S(Isopentyl)[NMeL]T[NMeA][NMeL]D-Piperidide; lactam N-11) | 1.4 ×10⁻⁶ cm/s
CC[C@H]1C(=O)N[C@@H]([C@@H](C)O)C(=O)N(CCc2ccccc2)CC(=O)N(C)[C@@H](CC(C)C)C(=O)N[C@H](COC(C)(C)C)C(=O)N(C)[C@@H](CC(C)C)C(=O)N(C)[C@@H](CC)C(=O)N[C@H](C(=O)N2CCCCC2)CC(=O)N[C@H](C)C(=O)N(C)[C@@H](Cc2ccccc2)C(=O)N[C@@H](CC(C)C)C(=O)N1C [pd409] ([dA][NMeF]L[NMeAbu]T[Gly(NCH2CH2Ph)][NMeL][dS](tBu)[NMeL][NMeAbu]D-Piperidide; lactam N-11) | 1.4 ×10⁻⁶ cm/s

same assay, conditions: human, Caco-2, Caco-2 (cm/sec)

Compound | Papp A→B at 180 min
CC(C)C[C@H]1C(=O)N[C@@H](COC(C)(C)C)C(=O)N(C)[C@@H](Cc2ccccc2)C(=O)N(C)[C@@H](C)C(=O)N[C@H](C(=O)N2CCCCC2)CC(=O)N[C@H](C(C)C)C(=O)N(C)[C@@H](Cc2ccccc2)C(=O)N[C@@H](CCCc2ccccc2)C(=O)N(C)[C@@H](CC(C)C)C(=O)N[C@@H]([C@@H](C)O)C(=O)N(C)CC(=O)N1C [pd192] ([dV][NMeF][hhPhe][NMeL]T[Sar][NMeL]S(tBu)[NMeF][NMeA]D-Piperidide; lactam N-11) | 1.1 ×10⁻⁶ cm/s
CC(C)C[C@@H]1NC(=O)[C@H](Cc2ccccc2)N(C)C(=O)[C@@H](C(C)C)NC(=O)C[C@@H](C(=O)N2CCCCC2)NC(=O)[C@H](C)N(C)C(=O)[C@H](CC(C)C)N(C)C(=O)[C@H](COC(C)(C)C)NC(=O)[C@H](CC(C)C)N(C)C(=O)CN(C)C(=O)[C@H](Cc2ccc(O)cc2)NC(=O)[C@H](CC(C)C)N(C)C1=O [pd127] ([dV][NMeF]L[NMeL]Y[Sar][NMeL]S(tBu)[NMeL][NMeA]D-Piperidide; lactam N-11) | 0.13 ×10⁻⁶ cm/s
CC(C)C[C@@H]1NC(=O)[C@H](Cc2ccccc2)N(C)C(=O)[C@H](COC(C)(C)C)NC(=O)[C@H](Cc2ccccc2)N(C)C(=O)[C@H](C)N(C)C(=O)[C@H](CC(C)C)N(C)C(=O)[C@@H](C)NC(=O)C[C@@H](C(=O)N2CCCCC2)NC(=O)[C@H](Cc2ccccc2)N(C)C(=O)[C@H]([C@@H](C)O)NC(=O)[C@H](CC(C)C)N(C)C1=O [pd220] ([dA][NMeL][NMeA][NMeF]S(tBu)[NMeF]L[NMeL]T[NMeF]D-Piperidide; lactam N-11) | 1.1 ×10⁻⁶ cm/s
CC[C@H](C)[C@@H]1NC(=O)[C@H](Cc2ccccc2)N(C)C(=O)[C@H](C)N(C)C(=O)C[C@@H](C(=O)N(C)[C@@H](Cc2ccccc2)C(=O)N(C)[C@@H](Cc2ccccc2)C(=O)N[C@@H](C)C(=O)N2CCCCC2)NC(=O)[C@H](CC(C)C)N(C)C(=O)[C@H](Cc2ccccc2)N(C)C(=O)[C@H]([C@@H](C)O)NC(=O)[C@H](CC(C)C)N(C)C(=O)[C@H](CC(C)C)N(C)C(=O)[C@H](C)N(C)C1=O [pd240] ([NMeA][NMeF]I[NMeA][NMeL][NMeL]T[NMeF][NMeL]D[NMeF][NMeF]A-Piperidide; lactam N-10) | 0.06 ×10⁻⁶ cm/s
CC(C)C[C@@H]1NC(=O)[C@H](CC(C)C)N(C)C(=O)[C@@H](C)NC(=O)C[C@@H](C(=O)N2CCCCC2)N(C)C(=O)[C@H](CC(C)C)N(C)C(=O)[C@H]([C@@H](C)O)NC(=O)[C@H](CC(C)C)N(C)C(=O)[C@H](Cc2ccc(C(F)(F)F)cc2)NC1=O [pd149] ([dA][NMeL]L[Phe(4-CF3)][NMeL]T[NMeL][NMeD]-Piperidide; lactam N-8) | 1.7 ×10⁻⁶ cm/s
CC(C)C[C@@H]1NC(=O)[C@H](C)N(C)C(=O)C[C@@H](C(=O)N2CCCCC2)NC(=O)[C@H](CC(C)C)N(C)C(=O)CN(C)C(=O)[C@H]([C@@H](C)O)NC(=O)[C@H](CC(C)C)N(C)C(=O)[C@H](Cc2cccc(Cl)c2)N(C)C(=O)[C@H](C)NC(=O)[C@H](Cc2ccccc2)N(C)C(=O)[C@H](CC(C)C)N(C)C1=O [pd161] ([NMeA]L[NMeL][NMeF]A[NMePhe(3-Cl)][NMeL]T[Sar][NMeL]D-Piperidide; lactam N-11) | 1.4 ×10⁻⁶ cm/s
